{"source": "paper PMC3742238", "about": "“Characterization of the Interaction between Eupatorin and Bovine Serum Albumin by Spectroscopic and Molecular Modeling Methods” (International Journal of Molecular Sciences, 2013)", "target": "T1, bovine serum albumin (BSA) (Bos taurus, UniProt P02769)", "T1 construct": "gene ALB; BSA fraction V (Sigma), 583 amino acid residues", "T1 sequence (P02769 25-607)": "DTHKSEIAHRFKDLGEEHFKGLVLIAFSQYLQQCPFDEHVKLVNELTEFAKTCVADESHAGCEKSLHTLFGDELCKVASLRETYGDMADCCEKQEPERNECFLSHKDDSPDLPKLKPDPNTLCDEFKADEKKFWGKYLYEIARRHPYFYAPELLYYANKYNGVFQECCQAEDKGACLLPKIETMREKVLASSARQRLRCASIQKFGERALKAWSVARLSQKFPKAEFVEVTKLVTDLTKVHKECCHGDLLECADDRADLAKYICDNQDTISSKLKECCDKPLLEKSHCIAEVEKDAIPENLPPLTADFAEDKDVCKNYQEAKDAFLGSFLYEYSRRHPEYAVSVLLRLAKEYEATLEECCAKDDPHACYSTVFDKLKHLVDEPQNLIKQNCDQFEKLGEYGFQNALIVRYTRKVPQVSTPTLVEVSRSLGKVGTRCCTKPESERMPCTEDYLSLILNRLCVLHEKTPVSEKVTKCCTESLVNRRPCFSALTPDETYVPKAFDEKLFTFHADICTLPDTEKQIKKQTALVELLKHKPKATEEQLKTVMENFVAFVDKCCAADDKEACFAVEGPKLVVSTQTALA", "assay": "intrinsic fluorescence quenching titration (static; Kb at […] K, pH […], n = […]), supported by UV-vis, CD and FRET", "assay_type": "binding", "settings": "read-out: Kb (10^6 M^-1) (converted)", "data": [{"smiles": "COc1ccc(-c2cc(=O)c3c(O)c(OC)c(OC)cc3o2)cc1O", "note": "[eupatorin]", "values": [{"measurement": "Kd", "value": 813, "unit": "nM"}]}]}
